{"source": "patent US5660842A", "about": "“Inhibition of helicobacter” (Bristol-Myers Squibb Company, priority 1995, dated 1997)", "key": {"[1]": {"system": "Helicobacter pylori", "assay": "Viability of H. pylori after 1 hour in prototype nutritional compositions containing FFA or MG (Example 3, Table 6)", "assay_type": "cell-based, Helicobacter pylori (ATCC 43629)", "settings": "for Change in viable cell number: 1 hour"}, "[2]": {"system": "Helicobacter pylori", "assay": "Bactericidal activity of MG and FFA of varying chain length (Example 4, FIG. 1)", "assay_type": "cell-based, Helicobacter pylori HP-4 (ATCC 43629)", "settings": "FFA tested C4:0 to C17:0; 1 hour"}, "[3]": {"system": "Helicobacter pylori", "assay": "Minimal inhibitory concentration (MIC) for H. pylori (Example 5)", "assay_type": "cell-based", "settings": "Helicobacter pylori, read-out: MIC"}, "[4]": {"system": "Helicobacter pylori", "assay_type": "cell-based, Helicobacter pylori (HP-2, HP-4, HP-5)", "settings": "for Frequency of resistant mutants (number of spontaneous mutants): ~1 × 10^8 CFU"}, "[5]": {"system": "H. pylori", "settings": "reported in literature; cited from earlier work"}, "[6]": {"settings": "concentrations as low as two times the MIC"}}, "note": "Read-outs that look alike come from different tables or passages of the source.", "data": [{"smiles": "CCCCCCCCCCCC(=O)O", "note": "[Lauric Acid, lauric acid]", "values": [{"measurement": "Change in viable cell number", "setting": "[1]; Nutrament (Formulation II), 20 mM", "value": -0.42, "unit": "LOG CFU/mL"}, {"measurement": "Change in viable cell number", "setting": "[1]; Sustacal (Formulation I), 5 mM", "value": 0.00, "unit": "LOG CFU/mL"}, {"measurement": "Change in viable cell number", "setting": "[1]; Sustacal (Formulation I), 10 mM", "value": 0.05, "unit": "LOG CFU/mL"}, {"measurement": "Change in viable cell number", "setting": "[1]; Sustacal (Formulation I), 20 mM", "value": -3.33, "unit": "LOG CFU/mL"}, {"measurement": "Change in viable cell number", "setting": "[1]; Ultracal (Formulation III), 5 mM", "value": 0.33, "unit": "LOG CFU/mL"}, {"measurement": "Change in viable cell number", "setting": "[1]; Ultracal (Formulation III), 10 mM", "value": -1.05, "unit": "LOG CFU/mL"}, {"measurement": "Change in viable cell number", "setting": "[1]; Ultracal (Formulation III), 20 mM", "value": -3.96, "unit": "LOG CFU/mL"}, {"measurement": "Inhibition in nutritional compositions", "setting": "[1]; lower levels than 20 mM", "value": "not inhibitory"}, {"measurement": "Bactericidal activity for H. pylori", "setting": "[2]", "value": "showed bactericidal activity"}, {"measurement": "MIC", "setting": "[3]; Table 7", "value": 50, "unit": "µg/mL"}, {"measurement": "MIC", "setting": "[3]; preliminary studies", "value": "~50", "unit": "µg/mL"}, {"measurement": "Frequency of resistance", "setting": "[4]; [6]", "value": "< 1×10^-8"}, {"measurement": "Resistant variants of H. pylori", "setting": "[4]; [6]", "value": "no resistant variants of H. pylori were found"}, {"measurement": "Frequency of resistant mutants (number of spontaneous mutants)", "setting": "[4]; strain 43529 (so in the source), 2 × MIC", "value": "< 1"}, {"measurement": "Frequency of resistant mutants (number of spontaneous mutants)", "setting": "[4]; strain 43529 (so in the source), 5 × MIC", "value": "< 1"}, {"measurement": "Frequency of resistant mutants (number of spontaneous mutants)", "setting": "[4]; strain 43529 (so in the source), 10 × MIC", "value": "< 1"}, {"measurement": "Frequency of resistant mutants (number of spontaneous mutants)", "setting": "[4]; strain 43579, 2 × MIC", "value": "< 1"}, {"measurement": "Frequency of resistant mutants (number of spontaneous mutants)", "setting": "[4]; strain 43579, 5 × MIC", "value": "< 1"}, {"measurement": "Frequency of resistant mutants (number of spontaneous mutants)", "setting": "[4]; strain 43579, 10 × MIC", "value": "< 1"}, {"measurement": "Frequency of resistant mutants (number of spontaneous mutants)", "setting": "[4]; strain 49503, 2 × MIC", "value": "< 1"}, {"measurement": "Frequency of resistant mutants (number of spontaneous mutants)", "setting": "[4]; strain 49503, 5 × MIC", "value": "< 1"}, {"measurement": "Frequency of resistant mutants (number of spontaneous mutants)", "setting": "[4]; strain 49503, 10 × MIC", "value": "< 1"}]}, {"smiles": "CCCCC/C=C\\C/C=C\\C/C=C\\C/C=C\\CCCC(=O)O", "note": "[arachidonic acid]", "values": [{"measurement": "Inhibitory effect on H. pylori", "setting": "[5]", "value": "inhibitory effect on H. pylori"}]}, {"smiles": "CC/C=C\\C/C=C\\C/C=C\\CCCCCCCC(=O)O", "note": "[ω-3 linolenic acid]", "values": [{"measurement": "Inhibitory effect on H. pylori", "setting": "[5]", "value": "inhibitory effect on H. pylori"}]}]}
